From patent EP4603105A1, “PHARMACEUTICAL COMPOSITION CONTAINING CYCLIC COMPOUND HAVING SELECTIVE KRAS INHIBITORY EFFECT AGAINST HRAS AND NRAS” (CHUGAI SEIYAKU KABUSHIKI KAISHA, priority 2022, dated 2024)
Where a SMILES comes first, the peptide text is derived from it. Bridges are numbered along the chain shown (N, C = ends). [ ]: non-standard residue; d: D form. The star is where a group is joined. hPhe(3,5-F2-4-CF3) = N[C@@H](CCc1cc(F)c(C(F)(F)F)c(F)c1)C(=O)O; hPhe(3-Cl-4-CF3) = N[C@@H](CCc1ccc(C(F)(F)F)c(Cl)c1)C(=O)O; NPrPhe(4-CF3) = CCCN[C@@H](Cc1ccc(C(F)(F)F)cc1)C(=O)O; NMePhe(4-Me) = CN[C@@H](Cc1ccc(C)cc1)C(=O)O; NMeGly(cPent) = CN[C@H](C(=O)O)C1CCCC1; Ac4c(3,3-F2) = NC1(C(=O)O)CC(F)(F)C1; αMeCha = C[C@](N)(CC1CCCCC1)C(=O)O; NMeD = CN[C@@H](CC(=O)O)C(=O)O; NMeL = CN[C@@H](CC(C)C)C(=O)O; Morpholide = C1CN(*)CCO1; Ac5c = NC1(C(=O)O)CCCC1; NBuGly = CCCCNCC(=O)O; NEtG = CCNCC(=O)O; Sar = CNCC(=O)O

Columns and labels:
[1] = target: GDP-bound NRAS wild-type protein (Homo sapiens, UniProt P01111); assay: Binding to NRAS by surface plasmon resonance (SPR), KD and KD ratio to KRAS
In short: (§1)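 Recombinant RAS proteins bearing a biotinylated Avi tag and loaded with GDP served as the captured ligand, recaptured fresh every cycle. Binding responses were referenced to an uncoated surface and a buffer-only blank cycle. Dissociation constants were obtained by 1:1 model fitting at 30°C.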

[2] = target: HRAS wild-type protein (Homo sapiens, UniProt P01112); assay: Binding to HRAS by surface plasmon resonance (SPR), KD and KD ratio to KRAS
In short: as §1

[3] = test system: human lung cancer strain NCI-H441; format: cell-based
In short: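 Signal came from […] measured per well once the reagent was added. Beforehand, cells were cultured at 37°C and 5% carbon dioxide on a compound series serially diluted in dimethyl sulfoxide.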

[4] = ratio of the KD value with respect to GDP-bound NRAS wild-type protein to the KD value with respect to KRAS
[5] = ratio of the KD value with respect to HRAS wild-type protein to the KD value with respect to KRAS
[6] = ratio of KD for GDP-bound NRAS wild-type protein to KD for KRAS
[7] = ratio of KD for HRAS wild-type protein to KD for KRAS

Chain of HRAS wild-type protein (P01112 whole entry): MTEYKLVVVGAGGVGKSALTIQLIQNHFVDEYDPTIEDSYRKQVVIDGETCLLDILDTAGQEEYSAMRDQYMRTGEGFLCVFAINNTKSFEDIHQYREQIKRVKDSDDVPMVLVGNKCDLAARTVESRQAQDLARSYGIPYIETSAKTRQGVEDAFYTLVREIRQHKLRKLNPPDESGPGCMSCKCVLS
Chain of GDP-bound NRAS wild-type protein (P01111 whole entry): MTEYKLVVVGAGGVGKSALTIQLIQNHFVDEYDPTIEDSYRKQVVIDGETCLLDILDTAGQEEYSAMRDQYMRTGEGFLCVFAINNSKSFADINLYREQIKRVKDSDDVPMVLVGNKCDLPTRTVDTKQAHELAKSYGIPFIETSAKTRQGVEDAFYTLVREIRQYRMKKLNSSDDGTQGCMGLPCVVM

| IC50 [3] [nM] | Compound | NRAS /KRAS [1, 4] | HRAS /KRAS [2, 5] | NRAS /KRAS [1, 6] | HRAS /KRAS [2, 7] |
| --- | --- | --- | --- | --- | --- |
| 8.7 | CCCN1C(=O)CN(C)C(=O)CN(C)C(=O)[C@H]([C@@H](C)CC)NC(=O)[C@H](CC(C)C)N(C)C(=O)C[C@@H](C(=O)N2CCOCC2)N(C)C(=O)[C@H](C2CCCC2)N(C)C(=O)C2(CC(F)(F)C2)NC(=O)[C@@H]2CCCN2C(=O)[C@H](CCc2cc(F)c(C(F)(F)F)c(F)c2)NC(=O)CN(C)C(=O)[C@@H]1Cc1ccc(C(F)(F)F)cc1 [PP0766] ([NMeL]I[Sar][Sar][NPrPhe(4-CF3)][Sar][hPhe(3,5-F2-4-CF3)]P[Ac4c(3,3-F2)][NMeGly(cPent)][NMeD]-Morpholide; lactam N-11) |  |  | B (a compound having 3 or more and less than 10 is denoted as B) | B (a compound having 3 or more and less than 10 is denoted as B) |
| 73.2 | CCC[C@H]1C(=O)N[C@@H]([C@@H](C)CC)C(=O)N(C2CC2)CC(=O)N(C)[C@H]2C/C=C\CCN(C2=O)[C@@H](CC2CCC(F)(F)CC2)C(=O)N(C)CC(=O)N[C@@H](CCc2ccc(C(F)(F)F)c(OC)c2)C(=O)N2C[C@H](OCC)C[C@H]2C(=O)N(C)C2(CCC2)C(=O)N(C)[C@@H](C(CC)CC)C(=O)N(C)[C@H](C(=O)N(C)C)CC(=O)N1C [PP2349] | A (a compound having 10 or more and less than 20 is denoted as A) | A (a compound having 10 or more and less than 20 is denoted as A) |  |  |
| 8.1 | CCC[C@H]1C(=O)N[C@@H]([C@@H](C)CC)C(=O)N(C)CC(=O)N(C)[C@H]2C/C=C\CCN(C2=O)[C@@H](Cc2ccc(C(F)(F)F)cc2)C(=O)N(C)CC(=O)N[C@@H](CCc2ccc(C(F)(F)F)c(Cl)c2)C(=O)N2C[C@H](OCC)C[C@H]2C(=O)NC2(CC(C)(C)C2)C(=O)N(C)[C@@H](CC(C)C)C(=O)N(C)[C@H](C(=O)N(C)C)CC(=O)N1C [PP2977] |  |  | A (a compound having 10 or more and less than 20 is denoted as A) | A (a compound having 10 or more and less than 20 is denoted as A) |

Further lines, the compound ahead of its results:

| Compound | IC50 [3] [nM] | NRAS /KRAS [1, 4] | HRAS /KRAS [2, 5] | NRAS /KRAS [1, 6] | HRAS /KRAS [2, 7] |
| --- | --- | --- | --- | --- | --- |
| CCCN1C(=O)CN(C)C(=O)CN(C)C(=O)[C@H]([C@@H](C)CC)NC(=O)[C@H](CC(C)C)N(C)C(=O)C[C@@H](C(=O)N(C)C)N(C)C(=O)[C@H](C2CCCC2)N(C)C(=O)[C@](C)(CC2CCCCC2)NC(=O)[C@@H]2CCCN2C(=O)[C@H](CCc2cc(F)c(C(F)(F)F)c(F)c2)NC(=O)CN(C)C(=O)[C@@H]1Cc1ccc(C(F)(F)F)cc1 [PP0739] ([NMeL]I[Sar][Sar][NPrPhe(4-CF3)][Sar][hPhe(3,5-F2-4-CF3)]P[αMeCha][NMeGly(cPent)][NMeD]-NMe2; lactam N-11) | 297 | B (a compound having 3 or more and less than 10 is denoted as B) | C (A compound having a KD ratio of 0.1 or more and less than 3 is denoted as C) |  |  |
| CCCN1C(=O)CN(C)C(=O)CN(CC)C(=O)[C@H]([C@@H](C)CC)NC(=O)[C@H](CC(C)C)N(C)C(=O)C[C@@H](C(=O)N2CCOCC2)N(C)C(=O)[C@H](C2CCCC2)N(C)C(=O)C2(CCCC2)NC(=O)[C@@H]2CCCN2C(=O)[C@H](CCc2ccc(C(F)(F)F)c(Cl)c2)NC(=O)CN(C)C(=O)[C@@H]1Cc1ccc(C(F)(F)F)cc1 [PP0145] ([NMeL]I[NEtG][Sar][NPrPhe(4-CF3)][Sar][hPhe(3-Cl-4-CF3)]P[Ac5c][NMeGly(cPent)][NMeD]-Morpholide; lactam N-11) | 8.8 |  |  | B (a compound having 3 or more and less than 10 is denoted as B) | B (a compound having 3 or more and less than 10 is denoted as B) |
| CCCCN1CC(=O)N(C)[C@@H](Cc2ccc(C)cc2)C(=O)N(C)CC(=O)N[C@@H](CCc2ccc(C(F)(F)F)c(Cl)c2)C(=O)N2CCC[C@H]2C(=O)NC2(CCCC2)C(=O)N(C)[C@@H](C2CCCC2)C(=O)N(C)[C@H](C(=O)N2CCOCC2)CC(=O)N(C)[C@@H](CC(C)C)C(=O)N[C@@H]([C@@H](C)CC)C(=O)N(C)CC1=O [PP0021] ([NMeL]I[Sar][NBuGly][NMePhe(4-Me)][Sar][hPhe(3-Cl-4-CF3)]P[Ac5c][NMeGly(cPent)][NMeD]-Morpholide; lactam N-11) | 9.8 |  |  | C (A compound having a KD ratio of 0.1 or more and less than 3 is denoted as C) | C (A compound having a KD ratio of 0.1 or more and less than 3 is denoted as C) |
| CC[C@H](C)[C@@H]1NC(=O)[C@H](CC(C)C)N(C)C(=O)C[C@@H](C(=O)N(C)C)N(C)C(=O)[C@H](C2CCCC2)N(C)C(=O)C2(CCCC2)NC(=O)[C@@H]2CC(F)(F)CN2C(=O)[C@H](CCc2cc(F)c(C(F)(F)F)c(F)c2)NC(=O)CN(C)C(=O)[C@H](Cc2ccc(C(F)(F)F)cc2)N2CCCC[C@@H](C2=O)N(C)C(=O)CN(C)C1=O [PP0576] | 2.4 | C (A compound having a KD ratio of 0.1 or more and less than 3 is denoted as C) | B (a compound having 3 or more and less than 10 is denoted as B) |  |  |
